Data published in ChEMBL document CHEMBL6078723, “Novel steroidal β-carboline derivatives as promising antibacterial candidates against methicillin-resistant Staphylococcus aureus” (Eur J Med Chem, 2025).
Activity calls are given as the source filed them. No cut-off for these calls is given here.

How the values were obtained:
Staphylococcus aureus [1] = test: Antibacterial activity against methicillin-resistant Staphylococcus aureus ATCC 33591; assay type: functional
Staphylococcus aureus [2] = test: Antibacterial activity against methicillin-resistant Staphylococcus aureus ATCC 33591 in presence of Na+ (reference value: 1 ug/ml); assay type: functional
Staphylococcus aureus [3] = test: Antibacterial activity against Staphylococcus aureus CGMCC1.8721 at pH 6.5 (reference value: 0.5 ug/ml); assay type: functional
Staphylococcus aureus [4] = test: Antibacterial activity against Staphylococcus aureus CGMCC1.8721 at 37.5 degreeC (reference value: 0.5 ug/ml); assay type: functional
HEK-293T = test: Cytotoxicity against HEK293T cells at 40 uM by CCK8 assay relative to control; assay type: toxicity, cell-based; conditions: human
Staphylococcus aureus [5] = test: Induction of morphological change in Staphylococcus aureus CGMCC1.8721 assessed as leakage of intracellular components at 4 times MIC by […] SEM analysis; assay type: functional, organism-based
Staphylococcus aureus [6] = test: Antibacterial activity against Staphylococcus aureus CGMCC1.8721 in presence of phosphatidylglycerol; assay type: functional, organism-based
Staphylococcus aureus [7] = test: Antibacterial activity against methicillin-resistant Staphylococcus aureus ATCC 33591 in presence of Ca2+ (reference value: 1 ug/ml); assay type: functional
Staphylococcus aureus [8] = test: Antibacterial activity against Staphylococcus aureus CGMCC1.8721 in presence of H2PO4- (reference value: 0.5 ug/ml); assay type: functional
Staphylococcus aureus [9] = test: Induction of ROS accumulation in Staphylococcus aureus CGMCC1.8721 by DCFH-DA dye based analysis; assay type: functional, organism-based
Staphylococcus aureus [10] = test: Antibacterial activity against Staphylococcus aureus CGMCC1.8721 in presence of PGN; assay type: functional, organism-based
Staphylococcus aureus [11] = test: Antibacterial activity against Staphylococcus aureus CGMCC1.8721 in presence of Ca2+ (reference value: 0.5 ug/ml); assay type: functional
Staphylococcus aureus [12] = test: Antibacterial activity against methicillin-resistant Staphylococcus aureus CGMCC1.12409 at 37.5 degreeC (reference value: 0.5 ug/ml); assay type: functional
Staphylococcus aureus [13] = test: Bactericidal activity against Staphylococcus aureus CGMCC1.8721 by CLSI based method; assay type: functional
Staphylococcus aureus [14] = test: Antibacterial activity against methicillin-resistant Staphylococcus aureus ATCC 33591 at 37.5 degreeC (reference value: 1 ug/ml); assay type: functional
Staphylococcus aureus [15] = test: Antibacterial activity against methicillin-resistant Staphylococcus aureus CGMCC1.12409 infected in mouse model assessed as reduction in bacterial load at infection site at 5 mg/kg measured for 5 days relative to control; assay type: functional; parameters: scale not given: the % may be the effect or the level left; conditions: time 5 day
[16] = Selectivity index, ratio of HC50 for hemolytic activity in rabbit RBC to MIC for antibacterial activity against Staphylococcus aureus; assay type: toxicity, cell-based; conditions: rabbit red blood cells
Staphylococcus aureus [17] = test: Antibacterial activity against methicillin-resistant Staphylococcus aureus CGMCC1.12409 in presence of Fe2+ (reference value: 0.5 ug/ml); assay type: functional
Staphylococcus aureus [18] = test: Antibacterial activity against methicillin-resistant Staphylococcus aureus CGMCC1.12409 at pH 8 (reference value: 0.5 ug/ml); assay type: functional
Staphylococcus aureus [19] = test: Bactericidal activity against methicillin-resistant Staphylococcus aureus CGMCC1.12409 by CLSI based method; assay type: functional
Staphylococcus aureus [20] = test: Antibiofilm activity against Staphylococcus aureus CGMCC1.8721 by crystal violet staining based analysis; assay type: functional, organism-based
Staphylococcus aureus [21] = test: Antibacterial activity against methicillin-resistant Staphylococcus aureus CGMCC1.12409 infected in mouse model assessed as reduction in neutrophils in skin tissues at 5 to 10 mg/kg measured for 5 days by H and E staining based analysis; assay type: functional, organism-based; conditions: dose 5-10 mg/kg, time 5.0 day
Staphylococcus aureus [22] = test: Induction of morphological change in Staphylococcus aureus CGMCC1.8721 assessed as cell rupture at 4 times MIC by […] SEM analysis; assay type: functional, organism-based
Staphylococcus aureus [23] = test: Antibacterial activity against Staphylococcus aureus CGMCC1.8721 at pH 8 (reference value: 0.5 ug/ml); assay type: functional
Staphylococcus aureus [24] = test: Induction of morphological change in Staphylococcus aureus CGMCC1.8721 assessed as appearance of surface folds at MIC by […] SEM analysis; assay type: functional, organism-based
Staphylococcus aureus [25] = test: Induction of resistance development in Staphylococcus aureus CGMCC1.8721 at sub-lethal concentration following serial passages for 30 days; assay type: functional, organism-based; conditions: time 30.0 day
Staphylococcus aureus [26] = test: Antibacterial activity against Staphylococcus aureus CGMCC1.8721 in presence of Mg2+ (reference value: 0.5 ug/ml); assay type: functional
Staphylococcus aureus [27] = test: Antibacterial activity against Staphylococcus aureus CGMCC1.8721 in presence of K+ (reference value: 0.5 ug/ml); assay type: functional
Staphylococcus aureus [28] = test: Inhibition of metabolic activity in Staphylococcus aureus CGMCC1.8721; assay type: functional, organism-based
Staphylococcus aureus [29] = test: Antibacterial activity against methicillin-resistant Staphylococcus aureus ATCC 43300 in presence of Na+ (reference value: 0.5 ug/ml); assay type: functional
Staphylococcus aureus [30] = test: Antibacterial activity against methicillin-resistant Staphylococcus aureus ATCC 43300 in presence of Fe2+ (reference value: 0.5 ug/ml); assay type: functional
Staphylococcus aureus [31] = test: Induction of cell membrane damage in Staphylococcus aureus CGMCC1.8721 assessed as red fluorescence at 4 times MIC by SYTO9/PI staining based CLSM analysis; assay type: functional, organism-based
Staphylococcus aureus [32] = test: Antibacterial activity against methicillin-resistant Staphylococcus aureus ATCC 43300 at pH 8 (reference value: 0.5 ug/ml); assay type: functional
Staphylococcus aureus [33] = test: Antibacterial activity against methicillin-resistant Staphylococcus aureus CGMCC1.12409 at 36.5 degreeC (reference value: 0.5 ug/ml); assay type: functional
Staphylococcus aureus [34] = test: Induction of membrane depolarization in Staphylococcus aureus CGMCC1.8721 by DiSC3(5) dye based analysis; assay type: functional, organism-based
Staphylococcus aureus [35] = test: Antibacterial activity against methicillin-resistant Staphylococcus aureus ATCC 33591 in presence of K+ (reference value: 1 ug/ml); assay type: functional
Staphylococcus aureus [36] = test: Antibacterial activity against methicillin-resistant Staphylococcus aureus ATCC 33591 at pH 8 (reference value: 1 ug/ml); assay type: functional
Staphylococcus aureus [37] = test: Antibacterial activity against methicillin-resistant Staphylococcus aureus CGMCC1.12409 in presence of Mg2+ (reference value: 0.5 ug/ml); assay type: functional
Staphylococcus aureus [38] = test: Antibacterial activity against methicillin-resistant Staphylococcus aureus CGMCC1.12409 in presence of Zn2+ (reference value: 0.5 ug/ml); assay type: functional
Staphylococcus aureus [39] = test: Antibacterial activity against methicillin-resistant Staphylococcus aureus ATCC 43300; assay type: functional
HepG2 = test: Cytotoxicity against human HepG2 cells at 40 uM by CCK8 assay relative to control; assay type: toxicity, cell-based; conditions: hepg2, 40 µM
Staphylococcus aureus [40] = test: Antibacterial activity against Staphylococcus aureus CGMCC1.8721 in presence of LTA; assay type: functional, organism-based
Staphylococcus aureus [41] = test: Antibacterial activity against methicillin-resistant Staphylococcus aureus ATCC 33591 in presence of Mg2+ (reference value: 1 ug/ml); assay type: functional
Staphylococcus aureus [42] = test: Antibacterial activity against methicillin-resistant Staphylococcus aureus CGMCC1.12409 infected in mouse model assessed as reduction in skin lession in subcutaneous tissues at 10 mg/kg measured for 5 days; assay type: functional, organism-based; conditions: time 5.0 day
Staphylococcus aureus [43] = test: Antibacterial activity against methicillin-resistant Staphylococcus aureus ATCC 43300 at 36.5 degreeC (reference value: 0.5 ug/ml); assay type: functional

COc1ccc2[nH]c3c(CC[C@H](C)[C@H]4CC[C@H]5[C@@H]6[C@H](O)C[C@@H]7C[C@H](O)CC[C@]7(C)[C@H]6C[C@H](O)[C@]45C)[n+](Cc4ccc(Cl)cc4)ccc3c2c1.[Br-]
MIC (Staphylococcus aureus [1]): 1 µg/mL | MIC (Staphylococcus aureus [2]): 1 µg/mL | MIC (Staphylococcus aureus [3]): 0.5 µg/mL | MIC (Staphylococcus aureus [4]): 0.5 µg/mL | Activity (HEK-293T): Non-toxic | Activity (Staphylococcus aureus [5]): Active | Activity (Staphylococcus aureus [6]): inactive | MIC (Staphylococcus aureus [7]): 1 µg/mL | MIC (Staphylococcus aureus [8]): 0.5 µg/mL | Activity (Staphylococcus aureus [9]): Dose-dependent-effect | Activity (Staphylococcus aureus [10]): Active | MIC (Staphylococcus aureus [11]): 0.5 µg/mL | MIC (Staphylococcus aureus [12]): 0.5 µg/mL | MBC (Staphylococcus aureus [13]): 1 µg/mL | MIC (Staphylococcus aureus [14]): 1 µg/mL | Activity (Staphylococcus aureus [15]): 94.33% | selectivity ratio [16]: > 256 | MIC (Staphylococcus aureus [17]): 1 µg/mL | MIC (Staphylococcus aureus [18]): 1 µg/mL | MBC (Staphylococcus aureus [19]): 1 µg/mL | Activity (Staphylococcus aureus [20]): Dose-dependent-effect | Activity (Staphylococcus aureus [21]): Active | Activity (Staphylococcus aureus [22]): Active | MIC (Staphylococcus aureus [23]): 0.5 µg/mL | Activity (Staphylococcus aureus [24]): Active | Activity (Staphylococcus aureus [25]): inactive | MIC (Staphylococcus aureus [26]): 0.5 µg/mL | MIC (Staphylococcus aureus [27]): 0.5 µg/mL | inhibition (Staphylococcus aureus [28]): Dose-dependent-effect | MIC (Staphylococcus aureus [29]): 0.5 µg/mL | MIC (Staphylococcus aureus [30]): 0.5 µg/mL | Activity (Staphylococcus aureus [31]): Active | MIC (Staphylococcus aureus [32]): 0.5 µg/mL | MIC (Staphylococcus aureus [33]): 0.5 µg/mL | Activity (Staphylococcus aureus [34]): Dose-dependent-effect | MIC (Staphylococcus aureus [35]): 1 µg/mL | MIC (Staphylococcus aureus [36]): 1 µg/mL | MIC (Staphylococcus aureus [37]): 1 µg/mL | MIC (Staphylococcus aureus [38]): 1 µg/mL | MIC (Staphylococcus aureus [39]): 0.5 µg/mL | Activity (HepG2): Non-toxic | Activity (Staphylococcus aureus [40]): Active | MIC (Staphylococcus aureus [41]): 1 µg/mL | Activity (Staphylococcus aureus [42]): Active | MIC (Staphylococcus aureus [43]): 0.5 µg/mL
